Measured values: patent US20230393140A1, “BINDING ASSAYS INVOLVING A PLURALITY OF SYNTHETIC COMPOUNDS, TARGETS, AND COUNTER TARGETS” (SRI International, priority 2020, published 2023)
Where two headings read alike, the source gives them in different places. Numbered stars: 1 amine (or outer) side, 2 acyl side, 3 side chain; on linkers, the order of the positions; unused ones are H or OH. Square brackets hold non-standard residues; d marks the D form. Peptide text beside a SMILES is read from it. * marks the point of attachment. 5FAM = O=C1OC2(c3ccc(O)cc3Oc3cc(O)ccc32)c2ccc(C(=O)*)cc21; NHCH2C6H4(4-CH2CONH2) = NC(=O)Cc1ccc(CN*)cc1; X1 = O=C(Cc1ccc(CN[*:1])cc1)[*:2]

Molecular target: T1, IL-6R (Homo sapiens, UniProt P08887)
T1 construct: purchased Creative Biomart IL6R-584H
T1 sequence (P08887 20-355 limits assumed): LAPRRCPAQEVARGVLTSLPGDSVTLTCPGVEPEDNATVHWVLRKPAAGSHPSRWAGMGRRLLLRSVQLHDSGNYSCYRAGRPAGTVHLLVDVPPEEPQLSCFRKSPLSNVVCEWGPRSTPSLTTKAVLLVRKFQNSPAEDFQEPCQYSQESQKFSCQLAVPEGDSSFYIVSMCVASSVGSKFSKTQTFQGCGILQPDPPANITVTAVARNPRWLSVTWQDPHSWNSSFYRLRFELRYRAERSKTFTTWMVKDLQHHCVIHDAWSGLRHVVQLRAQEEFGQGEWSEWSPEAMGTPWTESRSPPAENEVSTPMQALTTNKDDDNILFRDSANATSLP
Test: MST binding affinity of resynthesized NNP hits to IL-6R
Protocol: Hit binding affinity to various targets were determined using Microscale Thermophoresis (MST). MST experiments were performed on a Monolith NT.115pico (NanoTemper Technologies GmbH, Munich, Germany). Measurements were performed at room temperature, in triplicate with incubation periods of 15, 30 and 45 minutes. […] Targets were labeled using Nanotemper Monolith 2nd Generation Protein Labeling Kits. RED-MALEIMIDE (Maleimide-647-dye) labeling kit was used for K-Ras and RED-NHS (NHS-647-dye) labeling kit was used for IL-6, IL-6R, TNFα and ASGPR. The buffer for the ASGPR contained 20 mM HEPES pH 7.4, 150 mM NaCl, 10 mM MgCl2, 2 mM CaCl2, 0.05% Pluronic F-127, and 1 mM DTT; for IL-6 contained 20 mM HEPES pH 7.4, 150 mM KCl, 10 mM MgCl2, and 0.1% Pluronic F-127; for the soluble IL-6 receptor 20 mM HEPES pH 7.4, 150 mM NaCl, 10 mM MgCl2, and 0.05% Tween-20; for K-Ras 20 mM HEPES pH 7.4, 150 mM NaCl, 10 mM MgCl2, 0.05% Tween-20 and 1 mM DTT; for TNFα 10 mM HEPES pH 7.4, 150 mM NaCl, 10 mM MgCl2, 0.05% Polysorbate-20. Triplicate data was analyzed using MO.AffinityAnalysis software (NanoTemper Technologies GmbH).

[1] = MST, NNP2 library hit, target SIL-6R, one-site binding model

SMILES	Kd [1]	further results
CC(C)C[C@H](NC(=O)[C@@H](CCCNC(=N)N)NC(=O)[C@@H](C)NC(=O)Cc1ccc(CNC(=O)[C@H](CC(C)C)NC(=O)[C@@H](CCCNC(=N)N)NC(=O)[C@@H](CCC(=O)O)NC(=O)Cc2ccc(CNC(=O)[C@@H](NC(=O)[C@@H](C)NC(=O)CNC(=O)Cc3ccc(CNC(=O)[C@@H](NC(=O)[C@@H](CCCNC(=N)N)NC(=O)[C@H]4CCCN4C(=O)Cc4ccc(CNC(=O)[C@H](CC(C)C)NC(=O)[C@H](NC(=O)[C@@H](CC(N)=O)NC(=O)Cc5ccc(CNC(=O)[C@H](CC(C)C)NC(=O)[C@@H](CCCNC(=N)N)NC(=O)[C@@H](CC(C)C)NC(=O)Cc6ccc(CNC(=O)[C@H](Cc7ccccc7)NC(=O)[C@@H](Cc7c[nH]c8ccccc78)NC(=O)[C@@H](CCCNC(=N)N)NC(=O)c7ccc8c(c7)C(=O)OC87c8ccc(O)cc8Oc8cc(O)ccc87)cc6)cc5)[C@H](C)O)cc4)C(C)C)cc3)C(C)C)cc2)cc1)C(=O)NCc1ccc(CC(=O)N2CCC[C@@H]2C(=O)N[C@H](CCCNC(=N)N)C(=O)N[C@@H](C)C(=O)NCc2ccc(CC(=O)N[C@H](Cc3ccccc3)C(=O)N[C@H](CCCNC(=N)N)C(=O)NCC(=O)NCc3ccc(CC(N)=O)cc3)cc2)cc1 [IL6R-87-5, Fluorescein-(D)Arg-(D)Trp-(L)Phe-PAM-(D)Leu-(D)Arg-(L)Leu-PAM-(D)Asn-(D)Thr-(L)Leu-PAM-(D)Pro-(D)Arg-(L)Val-PAM-Gly-(D)Ala-(L)Val-PAM-(D)Glu-(D)Arg-(L)Leu-PAM-(D)Ala-(D)Arg-(L)Leu- PAM-(D)Pro-(D)Arg-(L)Ala-PAM-(D)Phe-(D)Arg-Gly-PAM] (5FAM-[dR][dW]F[X1][dL][dR]L[X1][dN][dT]L[X1][dP][dR]V[X1]G[dA]V[X1][dE][dR]L[X1][dA][dR]L[X1][dP][dR]A[X1][dF][dR]G-{NHCH2C6H4(4-CH2CONH2)})	330 nM	–
CC(C)C[C@H](NC(=O)[C@@H](CCCNC(=N)N)NC(=O)[C@@H](C)NC(=O)Cc1ccc(CNC(=O)[C@H](Cc2ccccc2)NC(=O)[C@@H](CCC(=O)O)NC(=O)[C@H]2CCCN2C(=O)Cc2ccc(CNC(=O)[C@H](Cc3ccccc3)NC(=O)[C@@H](CCCCN)NC(=O)[C@@H](C)NC(=O)Cc3ccc(CNC(=O)[C@H](CC(C)C)NC(=O)[C@@H](CCCNC(=N)N)NC(=O)[C@@H](Cc4c[nH]c5ccccc45)NC(=O)Cc4ccc(CNC(=O)[C@H](C)NC(=O)[C@@H](CCCCN)NC(=O)[C@H]5CCCN5C(=O)Cc5ccc(CNC(=O)[C@@H](NC(=O)[C@@H](CC(N)=O)NC(=O)[C@H]6CCCN6C(=O)Cc6ccc(CNC(=O)[C@H](Cc7ccccc7)NC(=O)[C@@H](Cc7c[nH]c8ccccc78)NC(=O)[C@@H](CCCNC(=N)N)NC(=O)c7ccc8c(c7)C(=O)OC87c8ccc(O)cc8Oc8cc(O)ccc87)cc6)C(C)C)cc5)cc4)cc3)cc2)cc1)C(=O)NCc1ccc(CC(=O)N[C@H](Cc2c[nH]c3ccccc23)C(=O)N[C@H](CCCCN)C(=O)N[C@@H](CC(C)C)C(=O)NCc2ccc(CC(=O)N[C@H](Cc3ccccc3)C(=O)N[C@H](CCCCN)C(=O)NCC(=O)NCc3ccc(CC(N)=O)cc3)cc2)cc1 [IL6R-87-6, Fluorescein-(D)Arg-(D)Trp-(L)Phe-PAM-(D)Pro-(D)Asn-(L)Val-PAM-(D)Pro-(D)Lys-(L)Ala-PAM-(D)Trp-(D)Arg-(L)Leu-PAM-(D)Ala-(D)Lys-(L)Phe-PAM-(D)Pro-(D)Glu-(L)Phe-PAM-(D)Ala-(D)Arg- (L)Leu-PAM-(D)Trp-(D)Lys-(L)Leu-PAM-(D)Phe-(D)Lys-Gly-PAM] (5FAM-[dR][dW]F[X1][dP][dN]V[X1][dP][dK]A[X1][dW][dR]L[X1][dA][dK]F[X1][dP][dE]F[X1][dA][dR]L[X1][dW][dK]L[X1][dF][dK]G-{NHCH2C6H4(4-CH2CONH2)})	3.3 nM	–
CC(C)C[C@H](NC(=O)[C@@H](CCCNC(=N)N)NC(=O)[C@@H](C)NC(=O)Cc1ccc(CNC(=O)[C@H](Cc2ccccc2)NC(=O)[C@@H](CCCNC(=N)N)NC(=O)[C@@H](CC(N)=O)NC(=O)Cc2ccc(CNC(=O)[C@H](Cc3ccccc3)NC(=O)[C@@H](CCCCN)NC(=O)[C@@H](C)NC(=O)Cc3ccc(CNC(=O)[C@H](CC(C)C)NC(=O)[C@@H](CCC(=O)O)NC(=O)[C@@H](CCCCN)NC(=O)Cc4ccc(CNC(=O)[C@@H](NC(=O)[C@@H](CCC(=O)O)NC(=O)[C@@H](Cc5ccccc5)NC(=O)Cc5ccc(CNC(=O)[C@H](CC(C)C)NC(=O)[C@@H](CCCNC(=N)N)NC(=O)[C@@H](CC(C)C)NC(=O)Cc6ccc(CNC(=O)[C@H](Cc7ccccc7)NC(=O)[C@@H](Cc7c[nH]c8ccccc78)NC(=O)[C@@H](CCCNC(=N)N)NC(=O)c7ccc8c(c7)C(=O)OC87c8ccc(O)cc8Oc8cc(O)ccc87)cc6)cc5)C(C)C)cc4)cc3)cc2)cc1)C(=O)NCc1ccc(CC(=O)N[C@H](Cc2c[nH]c3ccccc23)C(=O)N[C@H](CCCCN)C(=O)N[C@@H](CC(C)C)C(=O)NCc2ccc(CC(=O)N[C@H](C)C(=O)N[C@@H](C(=O)N[C@@H](CC(C)C)C(=O)NCc3ccc(CC(N)=O)cc3)C(C)C)cc2)cc1 [IL6R-87-10, Fluorescein-(D)Arg-(D)Trp-(L)Phe-PAM-(D)Leu-(D)Arg-(L)Leu-PAM-(D)Phe-(D)Glu-(L)Val-PAM-(D)Lys-(D)Glu-(L)Leu-PAM-(D)Ala-(D)Lys-(L)Phe-PAM-(D)Asn-(D)Arg-(L)Phe-PAM-(D)Ala-(D)Arg- (L)Leu-PAM-(D)Trp-(D)Lys-(L)Leu-PAM-(D)Ala-(D)Val-(L)Leu-PAM] (5FAM-[dR][dW]F[X1][dL][dR]L[X1][dF][dE]V[X1][dK][dE]L[X1][dA][dK]F[X1][dN][dR]F[X1][dA][dR]L[X1][dW][dK]L[X1][dA][dV]L-{NHCH2C6H4(4-CH2CONH2)})	–	Kd (IL-6R, ester versus amide amino acid-PAM bond polymers, library NNP2): 20 nM
CC(C)C[C@H](NC(=O)[C@@H](CCCNC(=N)N)NC(=O)[C@@H](C)NC(=O)Cc1ccc(COC(=O)[C@H](CC(C)C)NC(=O)[C@@H](CCCNC(=N)N)NC(=O)[C@@H](CCC(=O)O)NC(=O)Cc2ccc(COC(=O)[C@H](C)NC(=O)[C@@H](CCCCN)NC(=O)[C@@H](Cc3ccc(O)cc3)NC(=O)Cc3ccc(COC(=O)[C@H](C)NC(=O)[C@@H](CCCNC(=N)N)NC(=O)[C@@H](Cc4ccccc4)NC(=O)Cc4ccc(COC(=O)[C@H](Cc5ccccc5)NC(=O)[C@@H](CO)NC(=O)[C@@H](CCCNC(=N)N)NC(=O)Cc5ccc(COC(=O)[C@@H](NC(=O)[C@@H](CO)NC(=O)[C@@H](Cc6ccc(O)cc6)NC(=O)Cc6ccc(COC(=O)[C@H](Cc7ccccc7)NC(=O)[C@H](NC(=O)[C@@H](CC(N)=O)NC(=O)c7ccc8c(c7)C(=O)OC87c8ccc(O)cc8Oc8cc(O)ccc87)C(C)C)cc6)C(C)C)cc5)cc4)cc3)cc2)cc1)C(=O)OCc1ccc(CC(=O)N2CCC[C@@H]2C(=O)N[C@H](CCCNC(=N)N)C(=O)N[C@@H](C)C(=O)OCc2ccc(CC(=O)N[C@H](Cc3ccccc3)C(=O)N[C@H](CCCCN)C(=O)NCC(=O)OCc3ccc(CC(N)=O)cc3)cc2)cc1 [IL6R-93-12]	–	Kd (read-out: MST (microscale thermophoresis) KD (nM) [95% conf. int], IL-6R, ester versus amide amino acid-PAM bond polymers, library NNP2): 3.7 nM
